Laboratory results reported in US9925232B2, “Methods and compositions comprising desmopressin in combination with a 5-alpha reductase inhibitor” (Serenity Pharmaceuticals LLC, priority 2013, dated 2018).

What was measured:
[1] = human, in vivo; cited from earlier work
[2] = test system: patients experiencing on average at least two nocturnal voids per night; assay: Clinical study: reduction in the average number of nocturnal voids (Responder / Non-Responder); assay type: in vivo, human
Procedure: A clinical study was performed to evaluate the impact of administering desmopressin in combination with a 5-alpha reductase inhibitor alone or together with an alpha-adrenergic receptor antagonist to reduce the occurrence of nocturnal voiding by a patient. Experimental procedures and results are described below. […] Patients received as a nasal spray either (i) a 1.5 μg dosage of desmopressin or (ii) placebo. The desmopressin nasal spray (or placebo) was administered daily just prior to bedtime for a duration of twelve weeks. In addition, patients previously diagnosed as suffering from benign prostatic hyperplasia (BPH) and receiving a 5-alpha reductase inhibitor alone or together with an alpha-adrenergic receptor antagonist for treatment of BPH continued to receive the 5-alpha reductase inhibitor alone or together with the alpha-adrenergic receptor antagonist at the same dosage and frequency used prior to enrollment in this study. All patients in this study who received a 5-alpha reductase inhibitor alone or together with an alpha-adrenergic receptor antagonist for treatment of their BPH had been receiving the 5-alpha reductase inhibitor alone or together with the alpha-adrenergic receptor antagonist for at least 2 months before enrollment in this study and experienced on average at least two nocturnal voids per night before enrollment in this study. The desmopressin nasal spray was prepared by combining aliquots of an Emulsion Stock Solution and a Buffer Solution as described below. To produce the desmopressin nasal spray, aliquots of the 30 μg/mL solution were filtered to eliminate any bacterial contamination and diluted with an equal volume of emulsion stock solution to produce aseptic, preservative free dose forms comprising 15 μg/mL desmopressin, pH 5.5, containing 2% cyclopentadecanolide. These were bottled in sterile pump spray bottles fitted with a Pfeiffer APF pump sprayers that deliver 100 μL per metered spray (i.e., 1.5 μg desmopressin (i.e., 1500 ng desmopressin) per spray). The liquid contains no detectable microorganisms. Patients recorded the occurrence of nocturnal voids during the study period. Patients were designated to be a “Responder” if after receiving treatment there was a reduction in the average number of nocturnal voids during the treatment period.

[3] = BPH patients receiving 5-alpha reductase inhibitor alone or together with alpha-adrenergic receptor antagonist, 1.5 μg nasal spray daily, twelve weeks, n = 14
[4] = BPH patients, second component none (no 5-alpha reductase inhibitor or alpha-adrenergic receptor antagonist), 1.5 μg nasal spray daily, twelve weeks, n = 42
[5] = BPH patients, alpha-adrenergic receptor antagonist and 5-alpha reductase inhibitor, 1.5 μg desmopressin nasal spray daily, twelve weeks, n = 14
[6] = BPH patients, second component 5-alpha reductase inhibitor, 1.5 μg desmopressin nasal spray daily prior to bedtime, twelve weeks, n = 14
[7] = male patients without BPH, second component none, 1.5 μg nasal spray daily, twelve weeks, n = 34

Q: Which results are given for `NC(=O)CC[C@@H]1NC(=O)[C@H](Cc2ccccc2)NC(=O)[C@H](Cc2ccc(O)cc2)NC(=O)CCSSC[C@@H](C(=O)N2CCC[C@H]2C(=O)N[C@H](CCCN=C(N)N)C(=O)NCC(N)=O)NC(=O)[C@H](CC(N)=O)NC1=O` [Desmopressin, 1-desamino-8-D-arginine vasopressin]?
A: half-life (known clearance rate) [1]: 1.5 to 2.0 h; Difference in Responder Response Rate Between Desmopressin-treated Patients & Those Receiving Placebo ([2]; BPH patients receiving 5-alpha reductase inhibitor alone or together with alpha-adrenergic receptor antagonist): 40%; Non-Responder Patients: Total Number of Patients that Received Desmopressin [2, 3]: 6; Percent Total Non-Responder Patients that Received Desmopressin [2, 3]: 43% (6/14); Percent Total Responder Patients that Received Desmopressin (absolute response rate) [2, 3]: 57%; Responder Patients: Total Number of Patients that Received Desmopressin [2, 3]: 8; Difference in Responder Response Rate Between Desmopressin-treated Patients & Those Receiving Placebo ([2]; BPH patients receiving 5-alpha reductase inhibitor alone or together with alpha-adrenergic receptor antagonist, listed as desmopressin): 40%; Difference in Responder Response Rate Between Desmopressin-treated Patients & Those Receiving Placebo ([2]; BPH patients that did not receive a 5-alpha reductase inhibitor or an alpha-adrenergic receptor antagonist): 14%; Difference in Responder Response Rate Between Desmopressin-treated Patients & Those Receiving Placebo ([2]; BPH patients that did not receive a 5-alpha reductase inhibitor or an alpha-adrenergic receptor antagonist, listed as desmopressin): 14%; Non-Responder Patients: Number of Patients that Received Desmopressin [2, 4]: 24; Percent Total Non-Responder Patients that Received Desmopressin [2, 4]: 57%; Percent Total Responder Patients that Received Desmopressin (absolute response rate) [2, 4]: 43%; Responder Patients: Number of Patients that Received Desmopressin [2, 4]: 18; Percent Total Responder Patients that Received Desmopressin (absolute response rate) ([2]; BPH patients, second component none (no 5-alpha reductase inhibitor or alpha-adrenergic receptor antagonist), 1.5 μg nasal spray daily, twelve weeks, n = 42, listed as desmopressin): 43%; Non-Responder Patients: Number of Patients that Received Desmopressin [2, 5]: 2; Responder Patients: Number of Patients that Received Desmopressin [2, 5]: 5; Non-Responder Patients: Number of Patients that Received Desmopressin [2, 6]: 4; Responder Patients: Number of Patients that Received Desmopressin [2, 6]: 3; Difference in Responder Response Rate Between Desmopressin-treated Patients & Those Receiving Placebo ([2]; male patients not diagnosed with BPH, not receiving a 5-alpha reductase inhibitor or an alpha-adrenergic receptor antagonist): 18%; Difference in Responder Response Rate Between Desmopressin-treated Patients & Those Receiving Placebo ([2]; male patients not diagnosed with BPH, not receiving a 5-alpha reductase inhibitor or an alpha-adrenergic receptor antagonist, listed as desmopressin): 18%; Non-Responder Patients: Number of Patients that Received Desmopressin [2, 7]: 16; Percent Total Non-Responder Patients that Received Desmopressin [2, 7]: 47%; Percent Total Responder Patients that Received Desmopressin (absolute response rate) [2, 7]: 53%; Responder Patients: Number of Patients that Received Desmopressin [2, 7]: 18; Percent Total Responder Patients that Received Desmopressin (absolute response rate) ([2]; male patients without BPH, second component none, 1.5 μg nasal spray daily, twelve weeks, n = 34, listed as desmopressin): 53%
